Assay results taken from patent publication US8507520B2, “Polysubstituted 2-aryl-6-phenylimidazo[1,2-A]pyridine derivatives, and preparation and therapeutic use thereof” (Sanofi, priority 2008, dated 2013).

Legend:
mouse Nurr1 receptor = target: T1, mouse Nurr1 receptor (Mus musculus, UniProt Q06219); test: In vitro activity on N2A cells (NBRE-luciferase reporter); type: cell-based; conditions: N2A-8NBRE cells, products incubated 24 hours
T1 construct: a cell line (N2A) endogenously expressing the mouse Nurr1 receptor; host or cells: Neuro-2A (N2A) mouse neuroblastoma cells stably transfected with 8NBRE-luciferase
Protocol: Evaluation of the In Vitro Activity on N2A Cells
• The activity of the compounds according to the invention was evaluated on a cell line (N2A) endogenously expressing the mouse Nurr1 receptor and stabily transfected with the NOT binding response element (NBRE) coupled to the luciferase reporter gene. The EC50 values are between 0.01 and 10 μM. The tests were carried out according to the procedure described below. • The Neuro-2A cell line comes from a standard commercial source (ATCC). The Neuro-2A clone was obtained from a spontaneous tumour originating from a mouse A albino strain by R. J. Klebe et al. This Neuro-2A line is subsequently stabily transfected with 8NBRE-luciferase. The N2A-8NBRE cells are cultured to confluence in 75 cm^2 culture flasks containing DMEM supplemented with 10% of foetal calf serum, 4.5 g/l of glucose and 0.4 mg/ml of geneticin. After one week of culture, the cells are recovered with 0.25% trypsin for 30 seconds and then resuspended in DMEM without phenol red, containing 4.5 g/l of glucose, 10% of Hyclone defatted serum, and deposited in white, transparent-bottom, 96-well plates. The cells are deposited at a rate of 60 000 per well in 75 μl for 24 hours before the addition of the products. The products were applied in 25 μl and incubated for a further 24 hours. On the day of measurement, an equivalent volume (100 μl) of Steadylite is added to each well, followed by a waiting period of 30 minutes in order to obtain complete lysis of the cells and maximum production of the signal. The plates are then measured in a microplate luminescence counter after having been sealed with an adhesive film. The products are prepared in the form of a stock solution at 10^−2 M, and then diluted in 100% of DMSO. Each product concentration is diluted beforehand in culture medium before incubation with the cells thus containing a final concentration of 0.625% of DMSO. […] It therefore appears that the compounds according to the invention have a NOT-modulating effect.

T1 sequence (Q06219 whole entry): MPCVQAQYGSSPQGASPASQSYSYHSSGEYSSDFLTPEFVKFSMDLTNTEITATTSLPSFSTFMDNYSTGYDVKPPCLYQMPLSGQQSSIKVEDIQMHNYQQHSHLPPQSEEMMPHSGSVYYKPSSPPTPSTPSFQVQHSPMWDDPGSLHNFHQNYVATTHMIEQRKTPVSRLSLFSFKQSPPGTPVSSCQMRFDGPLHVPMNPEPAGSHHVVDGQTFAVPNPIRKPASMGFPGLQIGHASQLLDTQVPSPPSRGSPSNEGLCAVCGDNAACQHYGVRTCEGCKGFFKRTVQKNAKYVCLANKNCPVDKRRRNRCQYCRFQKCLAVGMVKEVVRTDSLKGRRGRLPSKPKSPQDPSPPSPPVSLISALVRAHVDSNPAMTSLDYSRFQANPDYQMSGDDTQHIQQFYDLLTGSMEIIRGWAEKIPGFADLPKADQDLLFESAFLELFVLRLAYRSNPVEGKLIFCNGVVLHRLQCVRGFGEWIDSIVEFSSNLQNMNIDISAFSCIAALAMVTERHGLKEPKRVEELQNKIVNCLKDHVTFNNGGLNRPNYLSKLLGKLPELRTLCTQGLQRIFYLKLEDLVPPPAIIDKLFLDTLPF

| Structure (SMILES) | EC50 (mouse Nurr1 receptor) | melting point |
| --- | --- | --- |
| Cc1cc(-c2cccc(CO)c2)cn2cc(-c3ccc(Cl)cc3)nc12 [Compound 1, {3-[2-(4-Chlorophenyl)-8-methylimidazo[1,2-α]pyridin-6-yl]phenyl}methanol] | 5 nM | 174 to 177 °C |
| Cc1c(-c2ccccc2)nc2ccc(-c3cccc(CO)c3)cn12 [Compound 3, [3-(3-Methyl-2-phenylimidazo[1,2-α]pyridin-6-yl)phenyl]methanol] | 0.5 nM |  |

Further lines, results first:

| EC50 (mouse Nurr1 receptor) | melting point | Structure (SMILES) |
| --- | --- | --- |
| 161 nM |  | COc1ccc(-c2nc3ccc(-c4cccc(C(C)(C)O)c4)cn3c2C)cc1 [Compound 15, 2-{3-[2-(4-methoxyphenyl)-3-methylimidazo[1,2-α]pyridin-6-yl]phenyl}propan-2-ol] |
| 68 nM |  | Cc1cc(-c2ccc(CO)cc2)cn2cc(-c3ccc4ccccc4c3)nc12 [Compound 10, [4-(8-methyl-2-naphthyl-2-ylimidazo[1,2-α]pyridin-6-yl)phenyl]methanol] |
| 1.7 nM |  | Cc1c(-c2cccc(Cl)c2)nc2ccc(-c3ccc(F)c(CO)c3F)cn12 [Compound 19, {3-[2-(3-chlorophenyl)-3-methylimidazo[1,2-α]pyridin-6-yl]-2,6-difluorophenyl}methanol] |
